This note sets out measurements from US5789425A, “Imidazolidinone derivatives, their acid adducts and therapeutic drugs for senile dementia” (Kyorin Pharmaceutical Co., Ltd., priority 1993, dated 1998).

Usually pIC50 stands for the negative decadic logarithm of the IC50, by convention in mol/L.

The test system of test [1] is M1 and M2 muscarinic receptors. Description: Selectivity to M1 receptor (ratio of IC50 values of M1 and M2 binding experiments). Also noted: species or system rat. On the procedure:
3) Selectivity to M1 receptor
This was determined from the ratio of IC50 values of testing compound obtained from the binding experiments of M1 and M2 muscarinic receptors. [formula]

Test [2] addresses T1, M1 type muscarinic cholinergic receptor (Rattus norvegicus, UniProt P08482).
T1 construct: crude synaptosome membrane specimen prepared from all brains (except cerebellum and brain stem) of rat; from tissue; host or cells: rat whole brain without cerebellum and brain stem, crude synaptosomal membranes
T1 sequence (P08482 1-460): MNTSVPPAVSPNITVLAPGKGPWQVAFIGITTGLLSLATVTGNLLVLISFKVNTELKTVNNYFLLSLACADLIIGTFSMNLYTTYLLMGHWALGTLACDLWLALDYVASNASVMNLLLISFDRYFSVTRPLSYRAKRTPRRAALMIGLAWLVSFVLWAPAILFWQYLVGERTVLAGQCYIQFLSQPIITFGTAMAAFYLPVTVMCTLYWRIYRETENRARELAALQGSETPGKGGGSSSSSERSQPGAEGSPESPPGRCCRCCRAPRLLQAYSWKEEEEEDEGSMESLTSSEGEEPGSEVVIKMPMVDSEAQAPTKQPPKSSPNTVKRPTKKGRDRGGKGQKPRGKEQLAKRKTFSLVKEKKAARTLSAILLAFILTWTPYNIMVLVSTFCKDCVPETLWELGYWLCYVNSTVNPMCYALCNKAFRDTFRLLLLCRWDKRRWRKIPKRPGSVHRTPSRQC
Description: Radioligand binding experiment to M1 type muscarinic cholinergic receptor ([3H]-pirenzepine). As to conditions: 1 nM [3H]-pirenzepine, rat brain synaptosome membrane, 60 minutes at 25° C.; read-out: [^3 H]-PZ (M1) IC50. On the procedure:
1) Radioligand binding experiment to M1 type muscarinic cholinergic receptor
Method: To a crude synaptosome membrane specimen prepared from all brains (except cerebellum and brain stem) of rat, [^3 H]-pirenzepine ([^3 H]-PZ, final concentration: 1 nM) and testing compound were added and the mixture was incubated for 60 minutes at 25° C. After stopped the reaction by filtered with suction, the radioactivity on filter was measured with liquid scintillation counter. The specific binding level of [^3 H]-pirenzepine was determined by subtracting the non-specific binding level in the presence of atropine (1 μM) from total binding level. Putting the [^3 H]-pirenzepine binding in the absence of testing compound on 100, the concentration of compound to decrease by 50% (IC50 value) was made an index of the binding activity of compound to M1 muscarinic receptor (refer to: J. A. D. M. Toner et al, Life Science, 1987, 40, 1981-1987).

Test [3] deals with T2, M2 type muscarinic cholinergic receptor (Rattus norvegicus, UniProt P10980).
T2 construct: crude synaptosome membrane specimen was prepared from the brain stem (medulla oblongata-pons) of rat; from tissue; host or cells: rat brain stem (medulla oblongata-pons), crude synaptosomal membranes
T2 sequence (P10980 1-466): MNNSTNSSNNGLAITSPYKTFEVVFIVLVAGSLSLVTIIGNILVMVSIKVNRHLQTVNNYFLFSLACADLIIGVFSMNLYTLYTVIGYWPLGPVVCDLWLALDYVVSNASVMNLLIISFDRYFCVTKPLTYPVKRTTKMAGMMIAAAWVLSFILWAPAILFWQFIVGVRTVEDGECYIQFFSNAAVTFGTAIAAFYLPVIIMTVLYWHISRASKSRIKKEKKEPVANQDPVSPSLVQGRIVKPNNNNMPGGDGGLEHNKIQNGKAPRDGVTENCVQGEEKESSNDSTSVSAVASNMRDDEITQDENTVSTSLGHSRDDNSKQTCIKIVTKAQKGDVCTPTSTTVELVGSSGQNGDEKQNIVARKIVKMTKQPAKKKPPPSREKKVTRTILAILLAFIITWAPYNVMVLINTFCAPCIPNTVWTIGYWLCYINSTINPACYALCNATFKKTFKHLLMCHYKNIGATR
The experiment in a line: Radioligand binding experiment to M2 type muscarinic cholinergic receptor ([3H]-QNB). As to conditions: 0.1 nM [3H]-QNB, rat brain stem synaptosome membrane; read-out: [^3 H]-QMB (M2) IC50.

The subject of test [4] is pirenzepine-induced amnesia. Description: Testing on the pirenzepine-induced amnesia (step-through type passive avoidance). The conditions noted are these: orally 60 minutes before acquisition trial; for Reaction latency Mean ± S.E.: retention trial 24 hours later, maximum 300 seconds, pirenzepine-treated mice. The test is classed as in vivo, Std:ddy strain male mice. The source says: In vivo pharmacological test
Testing on the pirenzepine-induced amnesia
For the experiment animals, Std:ddy strain male mice with body weight of 24 to 33 g (age in week: 5) (Nippon SLC) were used. For the device, a step-through type passive avoidance apparatus (made by Ohara Medical Co., Ltd.) consisting of two light and dark rooms was used. In the acquisition trial, mouse was placed in the light room and, 10 seconds later, the partitive guillotine door was opened. As soon as the mouse moved into the dark room, the guillotine door was closed and electric shock of 43 to 44 V was given for 1 second through the metal grid bars of the floor. The retention trial was conducted 24 hours later since then. […] The induction of amnesia was performed by fixing a mouse at prone position without anesthetization at 20 minutes before learning acquisition trial and injecting pirenzepine (10 μg/2 μl/mouse bilaterally into cerebral ventricles using a microsyringe. Moreover, a group not to administered with pirenzepine before acquisition trial (non-amnesia comparison group) was also provided. The testing compound was administered orally at 60 minutes before acquisition trial. The improvement rate was calculated according to following equation and the results are shown in Table 8 (refer to: M. P. Callfield et al, J. Pharm. Pharmacol.) 1983, 35, 131-132). [formula]

pIC50: −log10 of the molar value.

Take `O=C1N(C2=CCCN(Cc3ccccc3)C2)CCN1c1ccc([N+](=O)[O-])cc1` [Example 4, 1-[3-(1-Phenylmethyl-1,2,5,6-tetrahydropyridyl)]-3-(4-nitrophenyl)-2-imidazolidinone]: in test [1], the “IC50 (M2)/C50 (M1)” value is given as above 11.3. Besides, the pIC50 in test [2] was 6.28. In test [3], the pIC50 was below 5.22. In test [4] (3 mg/kg), the Improvement rate is given as 43.6% and the “Reaction latency Mean ± S.E.” value was determined as 71.1 ± 30.2 s.

For `O=C1N(C2=CCCN(Cc3ccccc3)C2)CCN1c1ccc(Cl)cc1` [Example 17, 1-[3-(1-Phenylmethyl-1,2,5,6-tetrahydropyridyl)]-3-(4-chlorophenyl)-2-imidazolidinone], the “IC50 (M2)/C50 (M1)” value in test [1] was above 16.2. The negative-log IC50 (pIC50) is 6.43 in test [2] and below 5.22 in test [3]. The results for the Improvement rate in test [4] (1 mg/kg) and in test [4] (3 mg/kg) were 82.7% and 68.8%, respectively. In addition, the “Reaction latency Mean ± S.E.” value in test [4] (1 mg/kg) came out at 189.9 ± 52.8 s; in test [4] (3 mg/kg) it was 164.2 ± 37.5 s.
